Values after ≈ are worked out from the molar mass of the structure shown. Like-named read-outs stand apart in the source and are kept apart here.
Columns and labels:
[1] = system: Staphylococcus aureus ATCC 29213; assay: microbe, parasite or virus in culture; assay type: cell-based; conditions: Staphylococcus aureus, ATCC29213; per-compound listing, Example 6; read-out: MIC S. aureus
[2] = system: Staphylococcus aureus MRSA MC-1; assay: microbe, parasite or virus in culture; assay type: cell-based; conditions: Staphylococcus aureus, MRSA, read-out: MIC MRSA
Bacillus cereus = assay: microbe, parasite or virus in culture; assay type: cell-based; conditions: Bacillus cereus; per-compound listing, Example 6; read-out: MIC B. cereus
M. smegmatis = assay: MIC assay; assay type: cell-based; conditions: Mycolicibacterium smegmatis, read-out: MIC M. smegmatis
C. elegans = assay: motility assay; assay type: in vivo; set-up: key to Movement score, 1/1600 / Movement score, 1/800 / Movement score, 1/400 / Movement score, 1/200 / Movement score, 1/100: normal (−); slow (+); very slow (++); not motile/paralyzed (+++); conditions: for Movement score, 1/100: dilution 1/100 of stock (10.24 μg/μL; SK-03-92 1.024 μg/μL); for Movement score, 1/100 / Movement score, 1/200 / Movement score, 1/400 / Movement score, 1/800 / Movement score, 1/1600: Ive 1 ng/μL in all wells; for Movement score, 1/200: dilution 1/200 of stock (10.24 μg/μL; SK-03-92 1.024 μg/μL); for Movement score, 1/400: dilution 1/400 of stock (10.24 μg/μL; SK-03-92 1.024 μg/μL); for Movement score, 1/800: dilution 1/800 of stock (10.24 μg/μL; SK-03-92 1.024 μg/μL); for Movement score, 1/1600: dilution 1/1600 of stock (10.24 μg/μL; SK-03-92 1.024 μg/μL), overnight 20° C.
C. elegans L1 larvae = assay: developmental assay; assay type: in vivo; set-up: key to Developmental score, 1/1600 / Developmental score, 1/800 / Developmental score, 1/400 / Developmental score, 1/200 / Developmental score, 1/100: dead (+++); distressed (++); slightly delayed (+); the same as M9-only untreated wells (−); conditions: for Developmental score, 1/100: dilution 1/100; for Developmental score, 1/100 / Developmental score, 1/200 / Developmental score, 1/400 / Developmental score, 1/800 / Developmental score, 1/1600: after four days, Ive 1 ng/μL in each well; for Developmental score, 1/200: dilution 1/200; for Developmental score, 1/400: dilution 1/400; for Developmental score, 1/800: dilution 1/800; for Developmental score, 1/1600: dilution 1/1600
[3] = per-compound listing, Example 6

Row | Molecule | MIC [1] | MIC (Bacillus cereus) | Movement score, 1/100 (C. elegans) | Movement score, 1/200 (C. elegans) | Movement score, 1/400 (C. elegans) | Movement score, 1/800 (C. elegans) | Movement score, 1/1600 (C. elegans) | Developmental score, 1/100 (C. elegans L1 larvae) | Developmental score, 1/200 (C. elegans L1 larvae) | Developmental score, 1/400 (C. elegans L1 larvae) | Developmental score, 1/800 (C. elegans L1 larvae) | Developmental score, 1/1600 (C. elegans L1 larvae) | MIC (M. smegmatis; [3]) | further results
1 | Oc1cc(O)cc(/C=C/c2csc3ccccc23)c1 [SK-03-44F2] | 32 µg/mL (≈ 119 µM) | 256 µg/mL (≈ 954 µM) |  |  |  |  |  |  |  |  |  |  |  | MIC [2]: > 512 µg/mL; MIC (M. smegmatis): > 512 µg/mL
2 | COc1cc(O)cc(/C=C/SC2CCCCC2)c1 [SK-04-50] |  |  | ++ | + | + | + | + | +++ | + | − | − | − |  | 
3 | CCOC(=O)/C=C\Sc1nc2ccccc2s1 [SK-04-59F1] |  |  | − | − | − | − | − |  |  |  |  |  |  | 
4 | COc1cc(O)cc(/C=C/Sc2ccccc2C(C)C)c1 [SK-05-01] | 16 µg/mL (≈ 53.3 µM) | 16 µg/mL (≈ 53.3 µM) | + | − | − | − | − |  |  |  |  |  | 256 µg/mL (≈ 852 µM) | 
5 | COc1cc(O)cc(/C=C/Sc2ccc(C(C)(C)C)cc2)c1 [SK-05-04] | 16 µg/mL (≈ 50.9 µM) | 8 µg/mL (≈ 25.4 µM) |  |  |  |  |  |  |  |  |  |  | 128 µg/mL (≈ 407 µM) | 
6 | COc1cc(O)cc(/C=C/Sc2cccc3ccccc23)c1 [SK-05-16] | 4 µg/mL (≈ 13 µM) | 4 µg/mL (≈ 13 µM) | ++ | ++ | ++ | + | − | ++ | − | − | − | − | 128 µg/mL (≈ 415 µM) | 
7 | COc1cc(O)cc(/C=C/Sc2ccc3ccccc3c2)c1 [SK-05-17] | 4 µg/mL (≈ 13 µM) | 4 µg/mL (≈ 13 µM) | ++ | ++ | ++ | ++ | ++ | +++ | ++ | ++ | − | − | 128 µg/mL (≈ 415 µM) | effect on worms at the lowest concentration tested (most active) (C. elegans; lowest concentration tested): severe distress; effect on worms at the lowest concentrations tested (C. elegans; lowest concentrations tested, at least triplicate): reduced motility, paralysis, or death
8 | CCC(C)CS/C=C/c1cc(O)cc(OC)c1 (stereo not shown) [SK-05-22] | 16 µg/mL (≈ 63.4 µM) | 16 µg/mL (≈ 63.4 µM) | +++ | +++ | ++ | + | − | +++ | +++ | +++ | + | − | 128 µg/mL (≈ 507 µM) | effect at the two highest dilutions (C. elegans L1 larvae): death or delays in development
9 | ivermectin [reference compound] |  |  | +++ | +++ | +++ | +++ | +++ | +++ | +++ | +++ | ++ | ++ |  | animals affected (C. elegans; 0.25 ng/μL, overnight): Over 40%; animals paralyzed (C. elegans; 0.5 ng/μL): more than 90%; paralysis (C. elegans; 0.5 ng/μl, FIG. 9): Most worms were paralyzed; paralysis (C. elegans; 1 ng/μL): All worms were paralyzed; lowest effective concentration (C. elegans; molar equivalent of 0.25 ng/μL): ~140 nM; lowest effective concentration (C. elegans; overnight, soaking, mixed population): 0.25 ng/µL
